Experimental data reported in patent US20220064167A1, “IMIDAZO-PYRAZOLE CARBOXAMIDE DERIVATIVES AS ANTICANCER AGENTS AND THE SYNTHESIS THEREOF” (AVIDIN KFT., priority 2018, published 2022).

What was measured:
[1] = test system: human breast adenocarcinoma cell line, MCF-7; assay: resazurin viability assay, 72 h (Table 1); assay type: cell-based; conditions: MCF7, 72h incubation, 156 nM-100 μM
Source text: (§1) In our experiments three different cell lines were used. Cells were purchased from the American Type Culture Collection (ATCC, Manassas, Va., USA). The human breast adenocarcinoma cell line, MCF-7 cells were maintained in Dulbecco's Modified Eagle Medium/Nutrient Mixture F-12 (DMEM/F12) 10% fetal calf serum (FCS, Gibco) and mouse mammary carcinoma 4T1 and human promyelocytic leukemia, HL-60 cells were maintained in Roswell Park Memorial Institute 1640 medium (RPMI-1640) 10% FCS. Media were supplemented with 2 mM GlutaMAX, and 100 U/mL penicillin, 100 μg/mL streptomycin (Life Technologies, Carlsbad, Calif., USA). Cell cultures were maintained at 37° C. in a humidified incubator in an atmosphere of 5% CO2 (Sanyo, Japan).
(§2) For viability assays cells were seeded in 96 well plates (MCF7 and 4T1: 6000, HL60: 120.000 cells/well) and incubated overnight. Compounds were dissolved in dimethyl sulfoxide (DMSO). Cells were treated with an increasing concentration of compounds having the general formula (I.) (156 nM-100 μM). Cell viability was determined after 72h incubation. Resazurin reagent (Sigma-Aldrich) was dissolved in PBS (pH 7.4) at 0.15 mg/ml concentration, sterile filtered (0.22 μm, Merck Millipore) and aliquoted at −20° C. Resazurin reagent (Sigma-Aldrich) was added at a final concentration of 25 μg/ml. After 2 hours incubation at 37° C. 5% CO2 fluorescence (530 nm excitation/580 nm emission) was recorded on a multimode microplate reader (Cytofluor4000, PerSeptive Biosytems). Viability was calculated with relation to untreated control cells and blank wells containing media without cells. IC50 values (50% inhibiting concentration) were calculated by GraphPad Prism® 5 (La Jolla, Calif., USA).

[2] = test system: human promyelocytic leukemia, HL-60 cells; assay: resazurin viability assay, 72 h (Table 1); assay type: cell-based; conditions: 72h incubation, 156 nM-100 μM
Source text: as §1, §2

[3] = test system: mouse mammary carcinoma 4T1; assay: resazurin viability assay, 72 h (Table 1); assay type: cell-based; conditions: 72h incubation, 156 nM-100 μM
Source text: as §1, §2

HL-60 cells = assay: resazurin viability assay, Example 103 (FIG. 1); assay type: cell-based; conditions: Homo sapiens, 72 h incubation, 20.000 cells/well, read-out: half-inhibitory concentration (IC50) on viability of HL-60 cells
Protocol: The human primary fibroblasts (6000 cells/well) and Hl60 cells (20.000 cells/well) were seeded into 96-well plates (Corning Life Sciences) in media. Fibroblasts were cultured overnight before treatment. Effects of compounds described in Example 22, 60 and 83 were examined in concentrations of 1 μM, 250 nM, 62.5 nM, 15.6 nM, 3.9 nM and 0.9 nM in 100 μl after 72 h incubation. Resazurin reagent was prepared and used as described in Example 1.
(§3) Viability was calculated with relation to untreated control cells and blank wells containing media without cells. IC50 values (50% inhibiting concentration) were calculated by GraphPad Prism® 5.

[4] = test system: human primary fibroblasts; assay: resazurin viability assay on primary fibroblasts, Example 103 (FIG. 1); assay type: cell-based; conditions: 72 h incubation, applied concentration range 1.6 nM-5 μM
Source text: To obtain primary human fibroblasts healthy volunteers (age 18-60 years) were enrolled into the study. The punch biopsies were taken from healthy subjects from the breast area undergoing plastic surgery. Primary fibroblasts were obtained from the skin by enzymatic digestion according to a standard protocol. Skin specimens were first washed in Salsol A solution (Human Rt, Gödöllö, Hungary) supplemented with 2% antibiotic/antimycotic solution (Sigma-Aldrich). Skin samples were then cut into narrow strips and incubated in Dispase solution (Roche Diagnostics, Mannheim, Germany) overnight at 4° C. The epidermis was subsequently separated from the dermis. Fibroblasts were obtained by incubating the dermis in Digestion Mix solution (Collagenase, Hyaluronidase and Deoxyribonuclease) for 2h at 37° C. Cell suspensions were filtered through a 100 μm nylon mesh (BD Falcon, San Jose, Calif., USA) and cells were pelleted by centrifugation. Fibroblasts were grown in low glucose DMEM medium containing 5% FBS, 1% antibiotic/antimycotic (PAA, Pasching, Austria) and 1% L-glutamine solution (PAA). Fibroblasts were cultured at 37° C. and 5% CO2 in humidified conditions. Depending on the cell growth, the medium was changed every 2-4 days and cells were passaged at 80% of confluence.
The human primary fibroblasts (6000 cells/well) and Hl60 cells (20.000 cells/well) were seeded into 96-well plates (Corning Life Sciences) in media. Fibroblasts were cultured overnight before treatment. […] Resazurin reagent was prepared and used as described in Example 1.
as §3

A375 (human melanoma) = assay: viability assay (Table 2); assay type: cell-based; conditions: A-375
Protocol: as §2
(§4) GBM2 (human glioblastoma), HeLa (human cervical carcinoma), MIA PaCa-2 (human pancreas carcinoma) and U87MG (human glioblastoma) cells were maintained in Dulbecco's Modified Eagle Medium (DMEM) 10% fetal calf serum (FCS, Gibco). A375 (human melanoma), A549 (human lung adenocarcinoma) and HEP3B (human hepatoma) cells were maintained in Dulbecco's Modified Eagle Medium/Nutrient Mixture F-12 (DMEM/F12) 10% FCS.
(§5) Media were supplemented with 2 mM GlutaMAX, and 100 U/mL penicillin, 100 μg/mL streptomycin (Life Technologies, Carlsbad, Calif., USA). Cell cultures were maintained at 37° C. in a humidified incubator in an atmosphere of 5% CO2 (Sanyo, Japan).
(§6) Viability assays were performed as described in Example 102.

[5] = test system: GBM2 (human glioblastoma); assay: viability assay (Table 2); assay type: cell-based
Protocol: as §2, §4, §5, §6

HT168 (human melanoma) = assay: viability assay (Table 2); assay type: cell-based
Protocol: as §2
HT168 (human melanoma), HT199 (human melanoma), HT29 (human colorectal adenocarcinoma), MOLT4 (human leukemia) and U937 (human lymphoma) cells were maintained in Roswell Park Memorial Institute 1640 medium (RPMI-1640) 10% FCS. SKOV-3 cells were maintained in Dulbecco's Modified Eagle Medium/McCoy's medium (DMEM/McCoy) 10% FCS.
as §5, §6

Row | Structure (SMILES) | IC50 [1] [µM] | IC50 [2] [µM] | IC50 [3] [µM] | melting point [°C] | IC50 (HL-60 cells) [µM] | decrease in viability of human primary fibroblasts [4] | IC50 (A375 (human melanoma)) [µM] | IC50 [5] [µM] | IC50 (HT168 (human melanoma)) [µM]
1 | CC(C)(C)CC(C)(C)Nc1c(C(C)(C)C)[nH]c2c(C(=O)Nc3ccc(F)cc3F)cnn12 [Example 58, 2-(Tert-butyl)-N-(2,4-difluorophenyl)-3-((2,4,4-trimethylpentan-2-yl)amino)-1H-imidazo[1,2-b]pyrazole-7-carboxamide] | > 50 | 0.628 | > 50 | 174 | – | – | – | – | –
2 | COc1ccc(Nc2c(C(C)(C)C)[nH]c3c(C(N)=O)cnn23)cc1 [Example 20, 2-(Tert-butyl)-3-((4-methoxyphenyl)amino)-1H-imidazo[1,2-b]pyrazole-7-carboxamide] | > 50 | 8.8 | > 50 | 260 to 262 | – | – | – | – | –
3 | COC(=O)CNc1c(-c2ccc(F)cc2)[nH]c2c(C(N)=O)cnn12 [Example 11, Methyl 2-((7-carbamoyl-2-(4-fluorophenyl)-1H-imidazo[1,2-b]pyrazol-3-yl)amino)acetate] | > 50 | 15.9 | > 50 | 229 to 230 | – | – | – | – | –
4 | Cc1ccc(-c2[nH]c3c(C(N)=O)cnn3c2NC(C)(C)CC(C)(C)C)cc1 [Example 6, 2-(p-Tolyl)-3-((2,4,4-trimethylpentan-2-yl)amino)-1H-imidazo[1,2-b]pyrazole-7-carbox-amide] | 17 | 12.6 | 12.3 | 218 to 219 | – | – | – | – | –
5 | CC(C)(C)CC(C)(C)Nc1c(C(C)(C)C)[nH]c2c(C(=O)Nc3ccc([N+](=O)[O-])cc3)cnn12 [Example 53, 2-(Tert-butyl)-N-(4-nitrophenyl)-3-((2,4,4-trimethylpentan-2-yl)amino)-1H-imidazo[1,2-b]pyrazole-7-carboxamide] | 9.94 | 7.64 | 27.1 | 199 | – | – | – | – | –
6 | CC(C)(C)CC(C)(C)Nc1c(C(C)(C)C)[nH]c2c(C(N)=O)cnn12 [Example 22, 2-(Tert-butyl)-3-((2,4,4-trimethylpentan-2-yl)amino)-1H-imidazo[1,2-b]pyrazole-7-carbox-amide] | 1.49 | 1.24 | 1.88 | 155 to 156 | 0.94 | Significant decrease in viability was not apparent | 2 | 5 | 3
7 | CC(C)(C)CC(C)(C)Nc1c(C2CCCCC2)[nH]c2c(C(N)=O)cnn12 [Example 16, 2-Cyclohexyl-3-((2,4,4-trimethylpentan-2-yl)amino)-1H-imidazo[1,2-b]pyrazole-7-carbox-amide] | 11.1 | 9.35 | 12.3 | 190 to 192 | – | – | – | – | –
8 | CC(C)(C)CC(C)(C)Nc1c(C(C)(C)C)[nH]c2c(C(=O)Nc3ccc(Br)cc3)cnn12 [Example 52, N-(4-Bromophenyl)-2-(tert-butyl)-3-((2,4,4-trimethylpentan-2-yl)amino)-1H-imidazo[1,2-b]pyrazole-7-carboxamide] | > 50 | 19.7 | > 50 | 153 to 154 | – | – | – | – | –
9 | CNC(=O)c1cnn2c(NC(C)(C)CC(C)(C)C)c(C(C)(C)C)[nH]c12 [Example 28, 2-(Tert-butyl)-N-methyl-3-((2,4,4-trimethylpentan-2-yl)amino)-1H-imidazo[1,2-b]pyrazole-7-carboxamide] | 4.46 | 1.52 | 4.66 | 173 to 174 | – | – | – | – | –
10 | C/C(=C\c1ccccc1)c1[nH]c2c(C(N)=O)cnn2c1NC(C)(C)C [Example 15, (E)-3-(Tert-butylamino)-2-(1-phenylprop-1-en-2-yl)-1H-imidazo[1,2-b]pyrazole-7-carbox-amide] | > 50 | 29.2 | > 50 | 190 to 191 | – | – | – | – | –
11 | CC(C)(C)CC(C)(C)Nc1c(C(C)(C)C)[nH]c2c(C(=O)Nc3cccc(F)c3)cnn12 [Example 49, 2-(Tert-butyl)-N-(3-fluorophenyl)-3-((2,4,4-trimethylpentan-2-yl)amino)-1H-imidazo[1,2-b]pyrazole-7-carboxamide] | 17.3 | 4.47 | 23.5 | 159 | – | – | – | – | –
12 | CC(C)(C)CC(C)(C)Nc1c(C(C)(C)C)[nH]c2c(C(=O)NCc3ccccc3)cnn12 [Example 33, N-Benzyl-2-(tert-butyl)-3-((2,4,4-trimethylpentan-2-yl)amino)-1H-imidazo[1,2-b]pyrazole-7-carboxamide] | 8.57 | 6.26 | 9.31 | 118 to 119 | – | – | – | – | –
